Measurements taken from patent US6410320B1, “Method and compositions for isolation and growth of kidney tubule stem cells, in vitro kidney tubulogenesis and ex vivo construction of renal tubules” (The University of Michigan, priority 1992, dated 2002).

System: renal proximal tubule cells
Assay: Phenotypic transformation / lumen formation (tubulogenesis) in a confluent monolayer, by light and electron microscopy
Assay type: cell-based, rabbit
Conditions: density-arrested confluent monolayer; where present TGF-β1 10 ng/ml, EGF 1 nM, RA 0.1 μM; 144 hours in Example 1
Description: Rabbit renal proximal tubule cells were grown in primary culture by techniques reported by Humes et al. in Lab. Invest. 64:538-45 (1991). The cells were grown in 35 mm Corning culture dishes with serum-free, hormonally defined Dulbecco's Modified Eagle Hams F-12 media (1:1, v/v) containing L-glutamine, penicillin, streptomycin, 50 nM hydrocortisone, 5 μg/ml of insulin, and 5 μg/ml of transferrin. The cultures were maintained in a humidified 5% CO2/95% air incubator at 37° C. Medium was changed every 3 to 5 days, depending on nutrient requirements based upon cell number. Cultures became confluent in 9 to 12 days. Once confluent, various agents as described below were added in 20 μl aliquots at various times to promote changes in morphologic phenotype or pattern formation.
Specimens for ultrastructural analysis were fixed with 2% glutaraldehyde in Sorenson's buffer (pH 7.2, 310 mOsm). Postfixation occurred in 1% OsO4 followed by dehydration in ethanol. Specimens were transferred through propylene oxide into monomer mixture (poly/Bed 812A, Araldite, DDSA and DMP-30) and polymerized at 60° C. Thin sections were stained with uranyl acetate and lead citrate, and examined in a Zeiss 9-S2 transmission electron microscope.
Of note, in each aggregation of cells one or two lumen structures were usually observed in random sectioning of tissue culture preparations. […]

CC1=C(/C=C/C(C)=C/C=C/C(C)=C/C(=O)O)C(C)(C)CCC1 [RA, all-trans retinoic acid]
morphologic phenotype of the monolayer / lumen formation: no dramatic effect on the appearance of the monolayer

TGF-β1: transforming growth factor-β1 (porcine platelets) from R & D Systems
morphologic phenotype of the monolayer / lumen formation: no lumen formation was observed
